Assay results published in patent US20050009776A1, “Method of treating atrial fibrillation or atrial flutter” (Aderis Pharmaceuticals, Inc., priority 2003, published 2005).
Marks after values point to notes of the source that are not given here.

Test system: patients with atrial fibrillation
Test: Example 4: placebo-controlled 15-minute i.v. infusion, heart rate and blood pressure in atrial fibrillation
Assay type: in vivo, human
Experimental: A double blind, placebo-controlled study was designed to establish the i.v. dose range of DTI-0009 that safely reduces heart rates in patients with atrial fibrillation. […] The patients' heart rates and blood pressures were measured periodically throughout the treatment period and for 75 and 80 minutes post-infusion, respectively. Safety assessments were made throughout the study and for up to three to seven days post-dose.

With `CCNC(=O)[C@H]1O[C@@H](n2cnc3c(NC4CCCC4)ncnc32)[C@H](O)[C@@H]1O` [DTI-0009, N^6-cyclopentyl-5′-(N-ethyl)carboxamidoadenosine] the DBP (2 μg/kg (11 patients), 30 minutes after start of infusion (BP 35 minutes, footnote c), Baseline 82.2) was 77.8^e mmHg, the SBP (2 μg/kg (11 patients), 30 minutes after start of infusion (BP 35 minutes, footnote c), Baseline 130.7) was 129.5^e mmHg and the DBP (2 μg/kg (n = 12), 5 minutes after start of infusion, Baseline 82.2) was 87.7 mmHg. The HR (2 μg/kg (n = 12), 5 minutes after start of infusion, Baseline 129.9) was 117.1^a bpm, the SBP (2 μg/kg (n = 12), 5 minutes after start of infusion, Baseline 130.7) was 136.6 mmHg and the DBP (2 μg/kg (n = 12), 15 minutes after start of infusion, Baseline 82.2) was 84.6 mmHg. The HR (2 μg/kg (n = 12), 15 minutes after start of infusion, Baseline 129.9) was 102.4^b bpm, the SBP (2 μg/kg (n = 12), 15 minutes after start of infusion, Baseline 130.7) was 134.4 mmHg and the HR (2 μg/kg (n = 12), 30 minutes after start of infusion, Baseline 129.9) was 112.1^a bpm. The HR (4 μg/kg (8 patients), 30 minutes after start of infusion, Baseline 143.9) was 115.1^a,d bpm, the DBP (4 μg/kg (n = 9), 5 minutes after start of infusion, Baseline 75.0) was 76.3 mmHg and the SBP (4 μg/kg (n = 9), 5 minutes after start of infusion, Baseline 132.1) was 127.4 mmHg. The HR (4 μg/kg (n = 9), 5 minutes after start of infusion, Baseline 143.9) was 114.9^a bpm, the DBP (4 μg/kg (n = 9), 15 minutes after start of infusion, Baseline 75.0) was 68.7 mmHg and the SBP (4 μg/kg (n = 9), 15 minutes after start of infusion, Baseline 132.1) was 132.8 mmHg. The HR (4 μg/kg (n = 9), 15 minutes after start of infusion, Baseline 143.9) was 100.1^b bpm, the DBP (4 μg/kg (n = 9), 30 minutes after start of infusion (BP 35 minutes, footnote c), Baseline 75.0) was 72.2 mmHg and the SBP (4 μg/kg (n = 9), 30 minutes after start of infusion (BP 35 minutes, footnote c), Baseline 132.1) was 122.0 mmHg. For the same molecule, the DBP (6 μg/kg (n = 9), 5 minutes after start of infusion, Baseline 69.4) was 72.9 mmHg, the SBP (6 μg/kg (n = 9), 5 minutes after start of infusion, Baseline 122.1) was 126.8 mmHg and the HR (6 μg/kg (n = 9), 5 minutes after start of infusion, Baseline 140.2) was 117.1^a bpm. The DBP (6 μg/kg (n = 9), 15 minutes after start of infusion, Baseline 69.4) was 70.4 mmHg, the SBP (6 μg/kg (n = 9), 15 minutes after start of infusion, Baseline 122.1) was 126.8 mmHg and the HR (6 μg/kg (n = 9), 15 minutes after start of infusion, Baseline 140.2) was 100.4^b bpm. For the same molecule, the DBP (6 μg/kg (n = 9), 30 minutes after start of infusion (BP 35 minutes, footnote c), Baseline 69.4) was 68.7 mmHg, the SBP (6 μg/kg (n = 9), 30 minutes after start of infusion (BP 35 minutes, footnote c), Baseline 122.1) was 115.4 mmHg and the HR (6 μg/kg (n = 9), 30 minutes after start of infusion, Baseline 140.2) was 114.4^a bpm. For the same molecule, the DBP (8 μg/kg (n = 7), 5 minutes after start of infusion, Baseline 82.3) was 85.1 mmHg, the SBP (8 μg/kg (n = 7), 5 minutes after start of infusion, Baseline 131.6) was 141.4 mmHg and the HR (8 μg/kg (n = 7), 5 minutes after start of infusion, Baseline 133.7) was 101.4^a bpm. The DBP (8 μg/kg (n = 7), 15 minutes after start of infusion, Baseline 82.3) was 80.3 mmHg, the SBP (8 μg/kg (n = 7), 15 minutes after start of infusion, Baseline 131.6) was 145.3 mmHg and the HR (8 μg/kg (n = 7), 15 minutes after start of infusion, Baseline 133.7) was 90.9^a bpm. The DBP (8 μg/kg (n = 7), 30 minutes after start of infusion (BP 35 minutes, footnote c), Baseline 82.3) was 77.4 mmHg, the SBP (8 μg/kg (n = 7), 30 minutes after start of infusion (BP 35 minutes, footnote c), Baseline 131.6) was 134.4 mmHg and the HR (8 μg/kg (n = 7), 30 minutes after start of infusion, Baseline 133.7) was 96.3^a bpm. For the same molecule, the DBP (10 μg/kg (n = 8), 5 minutes after start of infusion, Baseline 75.9) was 83.1 mmHg, the SBP (10 μg/kg (n = 8), 5 minutes after start of infusion, Baseline 128.3) was 140.6 mmHg and the HR (10 μg/kg (n = 8), 5 minutes after start of infusion, Baseline 142.5) was 110.0^b bpm. The DBP (10 μg/kg (n = 8), 15 minutes after start of infusion, Baseline 75.9) was 73.0 mmHg, the SBP (10 μg/kg (n = 8), 15 minutes after start of infusion, Baseline 128.3) was 125.8 mmHg and the HR (10 μg/kg (n = 8), 15 minutes after start of infusion, Baseline 142.5) was 95.4^a bpm. The DBP (10 μg/kg (n = 8), 30 minutes after start of infusion (BP 35 minutes, footnote c), Baseline 75.9) was 71.3 mmHg, the SBP (10 μg/kg (n = 8), 30 minutes after start of infusion (BP 35 minutes, footnote c), Baseline 128.3) was 126.1 mmHg and the HR (10 μg/kg (n = 8), 30 minutes after start of infusion, Baseline 142.5) was 104.6^a bpm. For the same molecule, the DBP (12 μg/kg (n = 4), 5 minutes after start of infusion, Baseline 80.5) was 82.5 mmHg, the SBP (12 μg/kg (n = 4), 5 minutes after start of infusion, Baseline 119.5) was 131.5 mmHg and the HR (12 μg/kg (n = 4), 5 minutes after start of infusion, Baseline 120.0) was 82.0^a bpm. The DBP (12 μg/kg (n = 4), 15 minutes after start of infusion, Baseline 80.5) was 78.5 mmHg, the SBP (12 μg/kg (n = 4), 15 minutes after start of infusion, Baseline 119.5) was 122.5 mmHg and the HR (12 μg/kg (n = 4), 15 minutes after start of infusion, Baseline 120.0) was 74.5^a bpm. The DBP (12 μg/kg (n = 4), 30 minutes after start of infusion (BP 35 minutes, footnote c), Baseline 80.5) was 68.5^a mmHg, the SBP (12 μg/kg (n = 4), 30 minutes after start of infusion (BP 35 minutes, footnote c), Baseline 119.5) was 118.5 mmHg and the HR (12 μg/kg (n = 4), 30 minutes after start of infusion, Baseline 120.0) was 88.0^a bpm. The “changes in systolic or diastolic blood pressures” value (any treatment group, infusion period and up to 80 minutes post-infusion) was “no clinically significant changes”.
